This is an account of results in patent US6583309B1 (University of Medicine and Dentistry of New Jersey, priority 1999, dated 2003).

The experiment deals with TAR RNA. Put plainly: In vitro binding of resin-bound compounds to TAR RNA (OD260 of unbound RNA). Further details: species or system HIV. Conditions: in vitro assay; compounds of formula I on TentaGel beads incubated with TAR RNA overnight at 4° C. in TK buffer; read-out: Kd (nM), binding constants. The method, then: Binding of compounds of formula I and V to TAR RNA was measured by evaluating their inhibition of TAR-TAT complex formation in the presence of increasing levels of the compound to be tested. The compounds of formula I were tested in an in vitro assay; the compounds of formula V were tested in an in vivo assay.
The TAR RNA used corresponds to the minimal sequence required for TAT responsiveness in vivo. This 29-residue oligonucleotide has the sequence: 5′-[…]-3′ (SEQ ID NO.: 1). TAR RNA was prepared by in vitro transcription. A “top strand” single-stranded DNA oligomer having the sequence 5′-TAATACGACTCACTATAG-3′ (SEQ ID NO.: 2) was annealed to a “bottom strand” single-stranded DNA template having the following sequence: 3′-[…]-5′ (SEQ ID NO.: 3), thereby generating a double-stranded region corresponding to a promoter sequence recognized by T7 RNA polymerase. Transcription was carried out in transcription buffer (40 mM Tris-HCl, pH 8.1, 1 mM spermidine, 0.01% Triton®X-100, 5 mM dithiothreitol, 4 mM each of ATP, GTP, CTP, and UTP at 37° C. for 4 to 5 hours. Reactions were performed in a volume of 0.02 ml containing 8 pmole of template (top strand annealed to bottom strand) and 40 to 60 units of T7 RNA polymerase. Transcription was terminated by adding an equal volume of loading buffer (9M urea, 1 mmol EDTA, 0.1M bromophenol blue in 1XTBE buffer; TBE is 45 mmol trisborate at pH 8). Product RNA was purified by electrophoresis through a denaturing 20% polyacrylamide gel containing 8M urea. RNA was extracted from the gel, precipitated, dissolved in dithylpyrocarbonate-treated water, and stored at −20° C. until used.
In vitro assay conditions: Compounds AA-DU were synthesized on TentaGel S—NH2 (4.6 mmole). All Fmoc-amino acids were purchased from Bachem (Torrance, Calif.). 1-hydroxybenzotriazole (HOBT) and diisopropylcarbodiimide (DIPCDI) were obtained from Aldrich Chemical Co., Milwalkee, Wis. Piperidine and trifluoroacetic acid were purchased from Applied Biosystems Division, Perkin-Elmer. Compounds AA-DU were synthesized manually according to standard solid-phase peptide synthesis protocols. Coupling efficiencies of residues at each step were monitored by Kaiser test. Deprotection of trimer peptides was carried out in 10% water in trifluoroacetic acid (1 mL) for 16 hours at room temperature. After filtration of solvents, the resin was washed with water (1 mL×4), DMF (1 mL×4), dichloromethane (1 mL×4), and dried under reduced pressure. The compounds attached to the resin (10 beads) were placed in an Eppendorf tube and washed with TK buffer ([…]). The beads were suspended in TK buffer ([…]) and incubated with TAR RNA ([…]) overnight at 4° C. The suspension was centrifuged and the supernatant containing unbound RNA was transferred to a cuvette for OD260 measurements. The UV absorbance was measured by a Shimadzu UV-1601 spectrometer. Equilibrium concentrations of RNA were determined from these measurements. Given that the initial concentrations of ligand and RNA are known, and assuming simple bimolecular receptor/substrate binding, dissociation constant (KD) was calculated from straightforward equations.
As for `N=C(N)NCCC[C@H](N)COC(=O)N[C@H](CCCCN)COC(=O)N[C@H](CCCCN)COC(N)=O` [Compound AH, Carbamic acid 6-amino-2-[6-amino-2-(2-amino-5-guanidino-pentyloxycarbonylamino)-hexyloxycarbonylamino]-hexyl ester], the Kd worked out at 460 nM.

As for `NCCCCCCCNCC(=O)N[C@@H](CCCCN)COC(=O)N[C@@H](CCCCN)COC(N)=O` [Compound CO, Carbamic acid 6-amino-2-{6-amino-2-[2-(7-amino-heptylamino)-acetylamino]-hexyloxycarbonylamino}-hexyl ester], the Kd was found to be 147 nM. Consider `NCCCC[C@H](N)COC(=O)N[C@@H](CCCCN)COC(=O)N[C@H](CCCCN)COC(N)=O` [Compound AJ, Carbamic acid 6-amino-2-[6-amino-2-(2,6-diamino-hexyloxycarbonylamino)-hexyloxycarbonylamino]-hexyl ester], for which the Kd came out at 4310 nM. Then `NCCCCCCCN(CC(=O)N[C@@H](CCCCN)COC(N)=O)C(=O)OC[C@H](N)CCCCN` [Compound DL, Carbamic acid 6-amino-2-{2-[(7-amino-heptyl)-(2,6-diamino-hexyloxycarbonyl)-amino]-acetylamino}-hexyl ester], with 678 nM; and `NCCCCCNCC(=O)N[C@H](CCCCN)COC(=O)N[C@H](CCCCN)COC(N)=O` [Compound AE, Carbamic acid 6-amino-2-{6-amino-2-[2-(5-amino-pentylamino)-acetylamino]-hexyloxycarbonylamino}-hexyl ester], with 1110 nM.

Turning to `NCCCC[C@H](COC(N)=O)NC(=O)[C@H](CCCCN)NC(=O)[C@@H](N)CCCCN` (stereo in doubt) [Compound BV, Carbamic acid 6-amino-2-[6-amino-2-(2,6-diamino-hexanoylamino)-hexanoylamino]-hexyl ester], the Kd was 403 nM.

As to `NCCCCCNCC(=O)N[C@@H](CCCCN)C(=O)N[C@H](CCCCN)COC(N)=O` [Compound BX, Carbamic acid 6-amino-2-{6-amino-2-[2-(5-amino-pentylamino)-acetylamino]-hexanoylamino}-hexyl ester], the dissociation constant Kd is 202 nM.

For the compound `NCCCCCCCN(CC(=O)N[C@@H](CCCCN)COC(N)=O)C(=O)[C@H](N)CCCCN` [Compound DN, Carbamic acid 6-amino-2-{2-[(7-amino-heptyl)-(2,6-diamino-hexanoyl)-amino]-acetylamino}-hexyl ester], the equilibrium dissociation constant (Kd) amounted to 678 nM.

As to `NCCCCCCCN(CC(=O)N[C@H](CCCCN)COC(N)=O)C(=O)CNCCCCCN` [Compound BO, Carbamic acid 6-amino-2-(2-{(7-amino-heptyl)-[2-(5-amino-pentylamino)-acetyl]-amino}-acetylamino)-hexyl ester], the dissociation constant Kd was determined as 183 nM. Then `NCCCC[C@@H](COC(N)=O)NC(=O)CN(CCCCN)C(=O)[C@H](N)CCCCN` [Compound CV, Carbamic acid 6-amino-2-{2-[(4-amino-butyl)-(2,6-diamino-hexanoyl)-amino]-acetylamino}-hexyl ester], with 567 nM; and `N=C(N)NCCC[C@H](N)COC(=O)N[C@H](CCCCN)COC(=O)N[C@@H](CCCCN)COC(N)=O` [Compound CH, Carbamic acid 6-amino-2-[6-amino-2-(2-amino-5-guanidino-pentyloxycarbonylamino)-hexyloxycarbonylamino]-hexyl ester], with 865 nM. Then `NCCCCNCC(=O)N[C@@H](CCCCN)COC(=O)N[C@H](CCCCN)COC(N)=O` [Compound AP, Carbamic acid 6-amino-2-{6-amino-2-[2-(4-amino-butylamino)-acetylamino]-hexyloxycarbonylamino}-hexyl ester], with 1490 nM; and `NCCCC[C@H](COC(N)=O)NC(=O)[C@H](CCCCN)NC(=O)OC[C@H](N)CCC(N)=O` [Compound DU, Carbamic acid 6-amino-2-[6-amino-2-(2-amino-4-carbamoyl-butoxycarbonylamino)-hexanoylamino]-hexyl ester], with 639 nM.

As usually defined, the Kd is the constant that tells how readily two partners part at equilibrium.
